# From BindingDB's records for patent US8940738 (Mitsubishi Tanabe Pharma, 2015)
# pIC50: −log10 of the molar value.
# Biological target: T1, Serine/threonine-protein (Bos taurus, UniProt A0A3Q1MT31)
# T1 construct: gene GSK3B
# Test: Inhibition Assay
# Conditions: pH 6.5; 25 °C
# Description: A mixture containing 100 mM MES-sodium hydroxide (pH 6.5), 1 mM magnesium acetate, 0.5 mM EGTA, 5 mM beta-mercaptoethanol, 0.02% Tween 20, 10% glycerol, 12 ug/ml P-GS1, 41.7 uM [gamma-32P] ATP (68 kBq/ml), bovine cerebral TPK1 and a compound shown in Table (a final mixture contained 1.7% DMSO deriving from a solution of a test compound prepared in the presence of 10% DMSO) was used as a reaction system. The phosphorylation was started by adding ATP, and the reaction was conducted at 25 C. for 2 hours, and then stopped by adding 21% perchloric acid on ice cooling. The reaction mixture was centrifuged at 12,000 rpm for 5 minutes and adsorbed on P81 paper (Whatmann), and then the paper was washed four times with 75 mM phosphoric acid, three times with water and once with acetone. The paper was dried, and the residual radioactivity was measured using a liquid scintillation counter.
# T1 sequence (A0A3Q1MT31 1-419): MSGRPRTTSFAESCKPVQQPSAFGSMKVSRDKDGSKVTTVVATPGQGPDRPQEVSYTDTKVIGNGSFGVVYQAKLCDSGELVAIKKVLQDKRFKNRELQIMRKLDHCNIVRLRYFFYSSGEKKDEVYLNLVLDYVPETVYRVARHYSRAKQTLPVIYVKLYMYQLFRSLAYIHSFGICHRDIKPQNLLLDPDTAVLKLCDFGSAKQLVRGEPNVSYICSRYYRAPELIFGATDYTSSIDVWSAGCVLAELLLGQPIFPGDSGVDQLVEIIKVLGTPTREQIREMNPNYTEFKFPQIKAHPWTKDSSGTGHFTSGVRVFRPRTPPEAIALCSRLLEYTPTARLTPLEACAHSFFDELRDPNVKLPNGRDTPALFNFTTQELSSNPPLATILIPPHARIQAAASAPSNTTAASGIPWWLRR
row,pIC50,SMILES
1,7.71,"C[C@@H]1COCCN1c1nc(-c2ncncc2F)cc(=O)n1C [US8940738, 2]"
2,7.48,"Cn1c(N2CCOC[C@H]2CF)nc(-c2ncncc2F)cc1=O [US8940738, 3]"
3,8.08,"Cc1nc(-c2ccc([C@H]3CN(c4nc(-c5ncncc5F)cc(=O)n4C)CCO3)cc2)no1 [US8940738, 4]"
4,7.48,"Cn1c(N2CCCC(c3ccc(N4CCCC4)cc3)C2)nc(-c2ncncc2F)cc1=O (centres undefined) [US8940738, 5]"
5,7.11,"Cc1cccc(N2CCN(c3nc(-c4ncncc4F)cc(=O)n3C)CC2)c1C [US8940738, 7]"
6,7.12,"COc1ccc(CCNc2nc(-c3ncncc3F)cc(=O)n2C)cc1OC [US8940738, 8]"
7,6.22,"Cn1c(NCC(=O)c2ccc(Cl)cc2)nc(-c2ncncc2F)cc1=O [US8940738, 9]"
8,6.78,"CN(CCc1ccc([N+](=O)[O-])cc1)c1nc(-c2ncncc2F)cc(=O)n1C [US8940738, 10]"
9,8.17,"Cc1nc(-c2ccc([C@H]3CN(c4nc(-c5ccncn5)c(O)c(=O)n4C)CCO3)cc2)no1 [US8940738, 11]"
